Measurements from patent publication US20060198832A1, “Peptide drugs for chronic lymphocytic leukemia (CLL) and other cancers” (priority 2004, published 2006).
Bridges are numbered along the chain shown (N, C = ends). Roman numbers before positions name the chains, in order. Where no end group is shown, it is not given here.

Key:
[1] = test system: chronic lymphocytic leukemia (CLL) cells; assay: viability/apoptosis of CLL cells electroporated with peptides (Annexin V-FITC/PI flow cytometry); type: cell-based, human
From the text: Peripheral blood mononuclear cells (PBMC) from patients with chronic lymphocytic leukemia (CLL) were obtained from the CLL Research Consortium (CRC) tissue bank. Briefly, heparinized peripheral blood was obtained from patients diagnosed with B-CLL according to standard criteria (Chenson et al., Blood 87:4990-4997 (1996)). Lymphocytes were isolated by Ficoll density-gradient centrifugation and verified by immunofluorescence flow cytometry to be composed of greater than 95% CD5/CD19/CD23 triple positive B cells. […] CLL cells were electroporated with a dimethyl sulfoxide (DMSO) control or peptides essentially as described in […] et al., J. Immunol. Methods 275:41-56 (2003), and […] et al., Cancer Res. 63:1242-1248 (2003). For evaluation of apoptosis, at least 5×10^5 cells were recovered by centrifugation and double-stained with Annexin V-FITC, an early marker of apoptosis, and propidium iodide (PI), a nucleic acid-binding vital dye, followed by flow-cytometric analysis using the FL-1 and FL-3 channels of a Becton Dickinson flow cytometer (FACSort; San Jose, Calif.).

GST-Bcl2(1-205) = target: T1, GST-Bcl2(1-205) (Homo sapiens, UniProt P10415); assay: competition ELISA for binding of BAD peptides to Bcl-2; conditions: FIG. 1
T1 construct: 50 ng GST-Bcl2(1-205; Santa Cruz Biotechnology; Santa Cruz, Calif.); purchased Santa Cruz Biotechnology
T1 sequence (P10415 1-205): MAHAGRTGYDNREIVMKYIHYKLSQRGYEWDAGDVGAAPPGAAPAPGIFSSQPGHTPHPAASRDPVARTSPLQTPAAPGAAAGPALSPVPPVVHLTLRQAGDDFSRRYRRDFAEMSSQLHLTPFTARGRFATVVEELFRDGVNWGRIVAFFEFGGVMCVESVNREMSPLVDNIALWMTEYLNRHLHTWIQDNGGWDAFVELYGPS
Procedure: To determine binding affinity to Bcl-2, competition ELISA assays were performed essentially as described in Cabezas et al., supra, 2001, with the following components. Briefly, acetyl-Cys(biotin-BMCC)-Ahx-Bad peptide (50 ng peptide/50 μl ELISA buffer) was adsorbed to 96-well neutraAvidin coated microtiter plates. Competition peptides were subsequently mixed with 50 ng GST-Bcl2(1-205; Santa Cruz Biotechnology; Santa Cruz, Calif.) in 50 μl ELISA buffer per titer well and incubated for one hour at 37° C. Wells were washed and treated with 50 μl of a 1/4000 dilution of anti-GST Mab 7E5 (from ascites fluid provided by Shinichi Kitada) in ELISA buffer for one hour at 37° C. Quantification of peptide-bound GST-Bcl2/Mab7E5 complex was carried out with alkaline-phosphatase-conjugated goat […] and p-nitrophenylphosphate substrate as described in Cabezas et al., supra, 2001.

697-neo cells = assay: cell viability assay in 697-neo cells; type: cell-based; conditions: low Bcl-2, FIG. 6
Procedure: (§1) The peptides were tested in cell viability assays essentially as described above in Examples I and II. Experiments were carried out in 697-neo and 697-Bcl-2 cells. 697 cells are from a cell line of preB leukemic cells. 697-Bcl-2 cells have been engineered to express high levels of Bcl-2. AML-349 and AML-728 are myeloblasts (verified by FACS analysis via CD34-positivity) that were isolated from respective patients with acute myelogenous leukemia (AML).

697-Bcl-2 cells = assay: cell viability assay in 697-Bcl-2 cells; type: cell-based; conditions: 697-Bcl2 cells with higher levels of Bcl-2, FIG. 6 and 7
Procedure: as §1

[2] = test system: acute myelogenous leukemia (AML) cells; assay: cell viability/apoptosis in patient AML cells; type: cell-based, human
Procedure: as §1

Bcl-2 family Bcl-2/x1 = Bcl-2 family Bcl-2/x1 (Homo sapiens, UniProt P10415); assay: binding of penetratin-linked peptides to Bcl-2 (method not described)
Chain of Bcl-2 family Bcl-2/x1 (P10415 1-205): as above

binding to Bcl-2 (Bcl-2 family Bcl-2/x1) | Substance | cell viability (Induction of Apoptosis in CLL Cells), patient sample JCB 178 ([1]; CLL patient sample JCB 178, peptide electroporated) [%] | cell viability (Induction of Apoptosis in CLL Cells), patient sample MA G15 ([1]; CLL patient sample MA G15, peptide electroporated) [%] | cell viability (Induction of Apoptosis in CLL Cells), patient sample TJK 328 ([1]; CLL patient sample TJK 328, peptide electroporated) [%] | cell viability (Induction of Apoptosis in CLL Cells), patient sample TJK 340 #1 ([1]; CLL patient sample TJK 340 #1, peptide electroporated) [%] | cell viability (Induction of Apoptosis in CLL Cells), patient sample TJK 340 #2 ([1]; CLL patient sample TJK 340 #2, peptide electroporated) [%] | cell viability (Induction of Apoptosis in CLL Cells), patient sample TJK 375 ([1]; CLL patient sample TJK 375, peptide electroporated) [%] | cell viability (Induction of Apoptosis in CLL Cells), Av. ([1]; average of the five preceding patient sample columns, peptide electroporated) [%] | cell viability of CLL cells ([1]; electroporated peptide, FIG. 2) | cell viability in all the patient CLL samples ([1]; electroporated peptide, summary of Table 4) | binding affinity for Bcl-2 compared to wild type BAD peptide (GST-Bcl2(1-205)) | activity in reducing cell viability (697-neo cells) | amount of peptide needed to kill cells (697-Bcl-2 cells) | induction of apoptosis / killing ([2]; AML cells of patient AML-349, FIG. 9) | induction of apoptosis ([2]; AML cells of patient AML-728, FIG. 8)
– | NLWAAQRYGRELRRMADEFVDAFKK [SEQ ID NO: 2] | 12 | 2 | 10 | 12 | 12 | 22 | 14 | significantly reduced | dramatically reduced | significantly higher binding affinity for Bcl-2 than the wild type BAD peptide | – | – | – | –
binds Bcl-2 | acetyl-NLWAAQRYGRELRRMADEFVDAFKKC-CRQIKIWFQNRRMKWKK-amide [2335] (peptide 1 Ac-NLWAAQRYGRELRRMADEFVDAFKKC; peptide 2 CRQIKIWFQNRRMKWKK-NH2; disulfide I:26-II:1) [compound 2335, Bad 2Ser/Ala peptide disulfide linked to penetratin-1] | – | – | – | – | – | – | – | – | – | – | more active in 697-neo cells with low Bcl-2 than a 2336 control peptide | it takes more 2335 to kill 697 cells with higher levels of Bcl-2 | induced apoptosis | induced apoptosis
